Reference: paper PMC4996933, “Shared active site architecture between archaeal PolD and multi-subunit RNA polymerases revealed by X-ray crystallography” (Nature Communications, 2016)

Biological target: T1, PolD DP1 (144-622), proofreading exonuclease subunit (Pyrococcus abyssi, UniProt Q9V2F3)
T1 construct: gene polB; residues 144-622, flexible N-terminal region removed; N-terminal 14-His tag cut with TEV; E. coli BL21(DE3) Rosetta2; di-metal site Fe3+/Zn2+; two copies in the asymmetric unit
T1 sequence (Q9V2F3 141-619): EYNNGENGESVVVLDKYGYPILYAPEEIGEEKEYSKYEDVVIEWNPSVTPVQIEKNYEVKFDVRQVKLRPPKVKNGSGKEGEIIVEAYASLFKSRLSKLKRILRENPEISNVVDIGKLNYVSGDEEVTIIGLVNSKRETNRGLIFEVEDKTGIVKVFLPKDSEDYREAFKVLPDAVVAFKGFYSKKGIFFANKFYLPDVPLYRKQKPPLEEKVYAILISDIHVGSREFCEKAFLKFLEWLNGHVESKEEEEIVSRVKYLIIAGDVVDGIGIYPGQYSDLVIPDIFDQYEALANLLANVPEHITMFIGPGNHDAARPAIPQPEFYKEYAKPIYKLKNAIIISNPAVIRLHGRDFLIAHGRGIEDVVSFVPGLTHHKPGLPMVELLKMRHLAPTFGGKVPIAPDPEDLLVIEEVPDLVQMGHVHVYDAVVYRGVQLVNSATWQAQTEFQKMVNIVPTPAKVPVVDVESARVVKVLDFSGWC
Assay: X-ray crystallography, co-crystallization, […] Å
Type: binding
Details: 5 mM dAMP, pH 6.7, 4 °C; Fe3+/Zn2+ nuclease active site; calcium acetate in crystallization buffer

For `Nc1ncnc2c1ncn2[C@H]1C[C@H](O)[C@@H](COP(=O)(O)O)O1` [dAMP], the “X-ray crystallography, co-crystallization, 2.5 Å” value was “DP1 was co-crystallized together with deoxy-adenosine monophosphate (dAMP)”.
